Literature values, collected in article PMC12036195 (Journal of Hematology & Oncology, 2025).

Test system: r/r PTCL

In the case of N#CC[C@H](C1CCCC1)n1cc(-c2ncnc3[nH]ccc23)cn1 [ruxolitinib], the Response rate is given as 25%.
